Measurements published in article PMC3223156, “Designer Lipid-Like Peptides: A Class of Detergents for Studying Functional Olfactory Receptors Using Commercial Cell-Free Systems” (PLoS ONE, 2011).

Legend:
Assay in all cases: microscale thermophoresis, native tryptophan fluorescence, Hill fit n = […]
Format in all cases: binding
Details in all cases: read-out: Measured EC50
[1] = biological target: T1, mOR174-9 (Mus musculus, UniProt Q920P2)
T1 construct: gene Or5d18; full length; C-terminal GSSG linker plus rho1D4 tag (TETSQVAPA); E. coli cell-free expression in Brij-35, purified in FC-14
T1 sequence (Q920P2 1-313): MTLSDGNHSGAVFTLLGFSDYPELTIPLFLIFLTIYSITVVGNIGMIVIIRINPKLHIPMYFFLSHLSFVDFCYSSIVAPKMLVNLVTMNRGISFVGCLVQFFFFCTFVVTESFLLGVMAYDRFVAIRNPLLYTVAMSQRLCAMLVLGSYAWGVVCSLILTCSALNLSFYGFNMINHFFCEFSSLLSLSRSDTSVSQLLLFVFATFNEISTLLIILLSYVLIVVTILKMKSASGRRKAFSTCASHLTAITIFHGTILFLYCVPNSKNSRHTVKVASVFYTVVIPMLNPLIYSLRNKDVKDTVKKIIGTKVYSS

[2] = biological target: T2, mOR174-4 (Mus musculus, UniProt Q920P1)
T2 construct: gene Or5d47; full length; C-terminal GSSG linker plus rho1D4 tag (TETSQVAPA); E. coli cell-free expression in Brij-35, purified in FC-14
T2 sequence (Q920P1 1-318): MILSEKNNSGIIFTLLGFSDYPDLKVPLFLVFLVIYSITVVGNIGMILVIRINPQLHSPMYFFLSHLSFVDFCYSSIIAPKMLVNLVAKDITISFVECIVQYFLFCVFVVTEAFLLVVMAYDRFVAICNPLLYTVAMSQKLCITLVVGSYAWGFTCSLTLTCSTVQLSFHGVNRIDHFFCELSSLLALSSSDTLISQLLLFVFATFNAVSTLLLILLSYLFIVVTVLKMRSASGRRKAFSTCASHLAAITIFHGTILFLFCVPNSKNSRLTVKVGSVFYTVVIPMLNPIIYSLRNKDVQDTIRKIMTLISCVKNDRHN

[3] = biological target: T3, mOR103-15 (Mus musculus, UniProt Q9QWU6)
T3 construct: gene Or6a2; full length; C-terminal GSSG linker plus rho1D4 tag (TETSQVAPA); E. coli cell-free expression in Brij-35, purified in FC-14
T3 sequence (Q9QWU6 1-327): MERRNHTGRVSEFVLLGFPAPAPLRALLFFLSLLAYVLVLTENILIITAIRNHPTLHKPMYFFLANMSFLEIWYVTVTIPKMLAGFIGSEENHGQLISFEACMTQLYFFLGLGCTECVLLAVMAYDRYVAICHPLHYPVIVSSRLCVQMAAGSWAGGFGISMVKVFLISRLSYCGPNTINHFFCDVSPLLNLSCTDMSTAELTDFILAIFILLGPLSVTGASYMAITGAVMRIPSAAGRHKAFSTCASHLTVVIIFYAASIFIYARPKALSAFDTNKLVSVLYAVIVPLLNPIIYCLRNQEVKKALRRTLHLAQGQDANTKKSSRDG

What does the source list for `CCOc1cc(C=O)ccc1O` [Ethyl Vanillin]?
EC50 [1]: 4.9 ± 3.5 µM; EC50 [2]: 7 ± 2 µM

With `CCCCCCC=O` [Heptanal] as the compound, how does the EC50 [3] read?
The EC50 was 2 ± 0.7 µM.
